For data set [1], the system named is rats maintained on dietary 10 ppm chlordecone. To be noted: CCl4 100 μl/kg i.p. on day 16 to rats on dietary 10 ppm chlordecone for 15 days; cited from earlier work.
Data set [2] concerns plasma alanine aminotransferase (ALT). Description: Plasma alanine aminotransferase (ALT) as biomarker of liver injury. In kind it is in vivo, mice. On the procedure: (§1) Mice were given by intraperitoneal injection (i.p.) a lethal dose of APAP (600 mg/kg in 0.45 N NaCl, pH 8.2) or the vehicle alone. Treated mice were given a single injection of 20 mg/kg, i.p., BPPA, a sPLA2 inhibitor, after a set time interval (2, 4, and 8 hours after the dose of APAP). BPPA was purchased from a commercial source (Catalog No. 53319, Sigma Aldrich, St. Louis, Mo.). All the mice were observed six times on the first day and twice daily thereafter for 14 days for any mortality. […] Plasma was obtained by centrifugation of blood samples (1000 g for 20 min) for assessment of biochemical parameters of liver injury. The remaining plasma was quick-frozen in liquid nitrogen and stored at −80° C. until further analysis.
Plasma was separated by centrifugation of the heparinized blood. Plasma alanine aminotransferase (ALT) was measured as a biomarker of liver injury using a kit from Thermo DMA (Waltham, Mass.). The results were ascertained by light microscopic examination of liver sections stained with hematoxylin and eosin (H&E).

For data set [3], the system named is secretory phospholipase A2 (sPLA2). Description: sPLA2 activity in plasma. Format: in vivo, mice. The protocol: as §1
sPLA2 activity in the plasma was measured using sPLA2 activity kit (Cayman Chemicals, Ann Arbor, Mich.) as per the manufacturer's instructions. sPLA2 activity in plasma was expressed as sPLA2 units/ml. One unit of sPLA2 hydrolyzes one μmole of substrate (diheptanoyl Thio-phosphatidylcholine) per min at 25° C. and is expressed as μmoles substrate hydrolyzed/min/ml.

The test system of data set [4] is Male Swiss Webster mice given a lethal dose of acetaminophen (APAP). Description: Survival of mice given a lethal dose of APAP, with or without BPPA treatment. In kind it is in vivo. The following applies: for mortality: APAP alone. The protocol:
Male Swiss Webster mice weighing between 25-30 g were obtained from Harlan Laboratories (Indianapolis, Ind.). Mice had unlimited access to rodent chow (Harlan Teklad Rat Chow No. 7001, Madison, Wis.) and water. The mice were housed over sawdust bedding free of any known chemical contaminants (Sani-chips; Harlan Teklad, Madison, Wis.) in air conditioned quarters (21±1° C.) with a 12 h photoperiod. All animal husbandry and handling conditions were as per the NIH Guide for Care and Use of Laboratory Animals. Research protocols were approved by the ULM Institutional Animal Care and Use Committee (IACUC).
as §1

The subject of data set [5] is rats receiving chlordecone (CD)+CCl4. Description: Survival after chlordecone + CCl4 combination with BPPA treatment. In kind it is in vivo. To be noted: BPPA 20 mg/kg 1 hour after CCl4 injection; rats on chlordecone; data not shown. On the procedure: A combination of two chemicals, which are known to be nontoxic individually at very low levels, is known to be highly toxic when combined in mammals. One of these is a chlorinated pesticide known as KEPONE™, which is commonly known as chlordecone. The other is the organic solvent, carbon tetrachloride (CCl4). Either chemical will be toxic if given at a sufficient dose. For example, chlordecone, administered to older rats at 120 mg/kg causes central nervous system (CNS) toxicity such as tremors, convulsions and death. CCl4 injected or given orally at 4 ml/kg causes severe liver necrosis, liver failure and death. […] Likewise, exposing rats to a single dose of 100 μl/kg CCL4, i.p. led to the classic centrilobular injury by 3 hours, which escalated to about 4 fold injury in the liver by 12 hours. However, by 24 hours, the liver injury was repaired and no liver injury was observed. In contrast, if the same dose of CCl4 was given to rats maintained on dietary 10 ppm chlordecone for 15 days, on day 16, all rats died within 3 days after injecting CCl4, which is about a 67-fold amplification of the toxicity for CCl4 (Mehendale, 1994).
Using this combination of chlordecone and CCL4, BPPA (20 mg/kg) was injected in the rats 1 hour after the injection of CCl4, and 90% of the rats receiving the chlordecone (CD)+CCl4 survived (data not shown).

For data set [6], the system named is mice lethally poisoned with thioacetamide. Description: Rescue of mice lethally poisoned with thioacetamide by BPPA. In kind it is in vivo. The following applies: data not shown. An excerpt: In addition, I have shown that sPLA2 mediates the liver injury initiated by thioacetamide, another hepatotoxicant, by showing mice lethally poisoned with thioacetamide were rescued by inhibiting sPLA2 with BPPA (data not shown).

For data set [7] the following is noted: humans; cited from earlier work.
The conditions of data set [8]: mice; cited from earlier work.
[9] abbreviates: BPPA 20 mg/kg 2 hours after APAP 600 mg/kg, surviving mice, over 14 days.
Where [10] appears, read: BPPA 20 mg/kg 4 hours after APAP 600 mg/kg.
The mark [11] stands for this setting: APAP alone 600 mg/kg i.p., measured on Day 2, vs control and vehicle.

This is an account of results in patent US20130253060A1, “Intramural Research Program of the National Institutes of Health, National Institute of Environmental Health Sciences (NIEHS)” (priority 2011, published 2013).

Structures are written as SMILES. Entries after “also recorded” stand apart in the source; their conditions may differ. Read-outs that look alike come from different tables or passages of the source.

As for `ClC(Cl)(Cl)Cl` [CCl4, carbon tetrachloride], the “amplification of the toxicity” value in data set [1] was approximately 67 fold.

Regarding `O=C(O)CC[C@@H](Cc1ccc(OCc2ccccc2)cc1)NC(=O)CCCCCCc1ccccc1` [BPPA, 5-(4-Benzyloxyphenyl)-4S-(7-phenylheptanoylamino) pentanoic acid], the “plasma ALT activity” value in data set [2] (setting [9]) was “down to the normal values; also recorded: decreased”. For the same compound, in data set [2] (setting [10]), the “plasma ALT level” value is “decreased to about normal levels”. Besides, the “plasma sPLA2 activity” value in data set [3] (setting [9]) was “down to the normal values; also recorded: decreased”. In addition, the “plasma sPLA2 level” value in data set [3] (setting [10]) is “decreased to about normal levels”. Further, the survival in data set [4] (BPPA 20 mg/kg i.p. 4 hours after APAP 600 mg/kg i.p., observed 14 days) was 70%; in data set [4] (BPPA 20 mg/kg i.p. 8 hours after APAP 600 mg/kg i.p., observed 14 days), 60%; in data set [4] (inhibitor administered 2 to 8 hours after APAP 600 mg/kg), 60%-80; in data set [5], 90%. Besides, in data set [4] (at 14 days, BPPA 20 mg/kg 2 hours after acetaminophen), the cumulative mortality came to 10%. The “rescue from lethal thioacetamide poisoning” value in data set [6] is recorded as “rescued”. The mortality result in data set [6] (mice lethally dosed with thioacetamide, treated with BPPA) is listed as “less mortality”.

Consider `CC(=O)Nc1ccc(O)cc1` [APAP, Acetaminophen], for which, in data set [2] (setting [11]), the “plasma ALT enzymatic activity” value is “increased”. Besides, the values for the half-life in data set [7] and in data set [8] were 2.5 h and 1 h, respectively. Also, in data set [3] (setting [11]), the “plasma sPLA2 enzymatic activity” value is recorded as “increased”. Besides, the mortality in data set [4] (single dose 600 mg/kg i.p., no further treatment) came out at 80%; in data set [4] (at 12 hours after injection), 50%; in data set [4] (at 24 hours after injection) it was 80%.

As a reminder, the mortality is the percentage killed. The half-life is the time in which the quantity being followed falls by half.
